# How the values were obtained:
# Assay type in all cases: cell-based
# [1] = test system: U266BL (multiple myeloma); assay: MTT cytotoxicity assay, U266BL; settings: Homo sapiens
# Protocol: The cytotoxicity assay of synthetic Phorboxazole A and various derivative compounds against human tumor cells was performed using the MTT (3-[4,5-dimethylthiazol-2-yl]-2,5-diphenyl tetrazolium bromide) assay (Boehringer Mannheim Corp., Indianapolis, Ind.). Briefly, exponentially growing brain tumor cells were seeded into a 96-well plate at a density of 2.5×10^4 cells/well and incubated for 36 hours at 37° C. prior to drug exposure. On the day of treatment, culture medium was carefully aspirated from the wells and replaced with fresh medium containing the various phorboxazole A derivative compounds as well as the tyrosine kinase inhibitory isoflavone genistein (GEN) at concentrations ranging from 0.1 to 250 μM. Triplicate wells were used for each treatment.
# The cells were incubated with the various compounds for 24-36 hours at 37° C. in a humidified 5% CO2 atmosphere. To each well, 10 μl of MTT (0.5 mg/ml final concentration) was added and the plates were incubated at 37° C. for 4 hours to allow MTT to form formazan crystals by reacting with metabolically active cells. […] The absorbance of each well was measured in a microplate reader (Labsystems) at 540 nm and a reference wavelength of 690 nm. […] The percent survival was calculated using the formula: [formula]
# The IC50 values were calculated by non-linear regression analysis. […]
# PC3 (prostate cancer) = assay: MTT cytotoxicity assay, PC3; settings: Homo sapiens
# [2] = test system: NALM-6 human B-lineage acute lymphoblastic leukemia cells; assay: MTT cytotoxicity assay, NALM-6; settings: NALM-6 (leukemia, ALL), 24-36 hours, read-out: IC50 [MTT]
# [3] = test system: U373 human glioblastoma cells; assay: Clonogenic assay, U373; settings: 7 days
# Protocol: The growth-inhibiting activity of the synthetic Phorboxazole A and the synthesized derivatives was tested in clonogenic assays. Cancer cells were treated with 1 nM, 10 nM, and 100 nM doses of synthetic Phorboxazole A or derivatives of phorboxazole A. Treated cells included U373 human glioblastoma cells, NALM-6, human B-lineage acute lymphoblastic leukemia cells, and BT-20 human breast cancer cells. The cancer cells were resuspended in clonogenic medium consisting of alpha-MEM supplemented with 0.9% methylcellulose, 30% fetal bovine serum, and 50 μM 2-mercaptoethanol. Cells were plated in duplicate Petri dishes at 100,000 cells/mL/dish and cultured in a humidified 5% CO2 incubator for 7 days. Cancer cell colonies were enumerated on a grid using an inverted phase microscope of high optical resolution. Results were expressed as % inhibition of clonogenic cells at a particular concentration of the test agent using the formula:
# % Inhibition=(1−Mean # of colonies [Test]/Mean # of colonies [Control]×100.
# U373 glioblastoma cells = assay: Matrigel invasion assay (Boyden chambers); settings: Homo sapiens, U373 MG; cells treated 72 hours; invasion 48 hours; read-out: IC50, inhibition of glioblastoma cell invasion through Matrigel
# Protocol: The in vitro invasiveness of human brain tumor cell lines U-373 MG and breast cancer cell lines BT-20 and MDA-MB-231 cells was assayed using a previously published method which employs Matrigel™-coated Costar 24-well transwell cell culture chambers (“Boyden chambers”) with 8.0-μm-pore polycarbonate filter inserts (Albini,et.al, 1987, Cancer Res., 47:3239-3245). The chamber filters were coated with 50 μg/ml of Matrigel™ matrix, incubated overnight at room temperature under a laminar flow hood and stored at 4° C. Matrigel™ matrix is made up of several components of the extracellular matrix (ECM), including collagen, laminin and proteo-glycans. The cancer cells were incubated with 500, 250, 125, 62.5, and 31.2 nM concentrations of the synthetic Phorboxazole compounds for 72 hours.
# On the day of the experiment, the coated inserts were rehydrated with 0.5 ml serum-free DMEM containing 0.1% bovine serum albumin for 1-2 hours. The treated cells were trypsinized, washed twice with serum-free DMEM containing BSA, counted and resuspended at 1×10^5 cells/ml. A 0.5 ml cell suspension containing 5×10^4 cells in a serum-free DMEM was added to the Matrigel™-coated and rehydrated filter inserts. A volume of 750 μl of NIH fibroblast conditioned medium was placed as a chemoattractant in 24-well plates and the inserts were placed in wells and incubated at 37° C. for 48 hours.
# The invasive cells that migrated to the lower side of the filter were fixed, stained with Hema-3 solutions and counted under microscope. Five to 10 random fields per filter were counted to determine the mean (±SE) values for the invasive fraction. The invasive fractions of cells treated with phorboxazole A derivatives were compared to those of DMSO treated control cells and the percent inhibition of invasiveness was determined using the formula: [formula]
# Each treatment condition was evaluated in duplicate in 3 independent experiments. IC50 values were calculated by non-linear regression analysis using Graphpad Prisin Software Version 2.0 (Graphpad Software Inc., San Diego, Calif.).
smiles,measurement,setting,value
"C=C1C[C@@H]2C[C@@H]3C[C@@H](O)C[C@@H](O3)c3coc(n3)/C=C/C[C@H]3O[C@@H](/C(C)=C/c4coc(C[C@]5(O)C[C@H](OC)C[C@H]([C@H](O)/C=C(C)/C=C/[C@@H](C/C=C/Br)OC)O5)n4)[C@H](C)[C@@H](OC(=O)/C=C\C[C@@H](C1)O2)[C@H]3C [Compound 1, Phorboxazole A]",IC50,[1],14.9 nM
same,IC50,PC3 (prostate cancer),14.2 nM
same,IC50,[2],1.7 nM
same,Mean Number Colonies/10^4 cells,[3]; 10 nM,378
same,Mean Number Colonies/10^4 cells,[3]; 100 nM,0
same,inhibition at 0.01 µM,"[3]; Homo sapiens, U373 MG, 168 h, 10 nM, read-out: Inhibition of clonogenic growth",42.4%
same,inhibition at 0.1 µM,"[3]; Homo sapiens, U373 MG, 168 h, 100 nM, read-out: Inhibition of clonogenic growth",> 99.9%
same,IC50,U373 glioblastoma cells,< 31.2 nM

# Source: patent publication US6797721B2, “Phorboxazole derivatives for treating cancer” (Parker Hughes Institute, priority 1999, dated 2004)
